Each structure is given as a SMILES string.

What all share (type): cell-based
Data set [1] has as its system B16F10 mouse melanoma cell line. As to the kind of experiment: MTT assay, cancer cells B16F10. To be noted: 48 hours, H16F10. From the text:
(§1) The cytotoxicity against normal cells and cancer cells was confirmed using the MTT assay for the novel compounds KP2 to KP8 prepared in Example 1.
(§2) MTT assay method is as follows:
(§3) Normal cells (RAW264.7 rat macrophage cell line (osteoblast progenitor cell) and NIH3T3 mouse fibroblast line) and cancer cells (AGS human gastric cancer cell line, A549 human lung cancer cell line, HepG2 human liver cancer cell line, HCT116 human colon cancer cell line, PC3 human prostate cancer Cell line, Caki-1 human kidney cancer cell line, T24 human bladder cancer cell line, HT1080 human fibrosarcoma cell line, B16F10 mouse melanoma cell line) were cultured in 5% CO2 in 96-well plates containing DMEM with 10% FBS (fetal bovine serum). After incubation, KP2 to KP8 and controls (osmundacetone and 4-hydroxybenzalacetone) were added to the cell medium and incubated for 48 hours. Thereafter, 100 μl of MTT (0.5 mg/mL phosphate buffered saline) was added, followed by incubation for 2 hours. 100 μl of DMSO was added to each well, followed by incubation for 10 minutes, and the absorbance was measured at 550 nm using a microplate reader (SPCTRA MAX 340PC, Molecular Devices, USA). Absorbance is calculated by the formula below as an indicator of the number of cells that survived, and reproducibility was confirmed by three experiments.
(§4) The rate of cell proliferation (%)=OD550(sample)/OD550(control)
(Tetrazolium assays rely on reduction of a dye to a coloured formazan, in cell work by metabolically active cells.)

Data set [2] concerns HepG2 human liver cancer cell line. The data set is described as follows: MTT assay, cancer cells HepG2. To be noted: for LD63 Cancer cell HepG2: MTT assay, 48 hours.
Description: as §1, §2, §3, §4

Data set [3] has as its system NIH3T3 mouse fibroblast line. As to the kind of experiment: MTT assay, normal cells NIH3T3. The conditions noted are these: for LD50 Normal cells NTH3T3: mouse, 48 h.
Description: as §1, §2, §3, §4

Data set [4] concerns PC3 human prostate cancer Cell line. The data set is described as follows: MTT assay, cancer cells PC3. The conditions noted are these: 48 hours.
Description: as §1, §2, §3, §4

Data set [5] has as its system RAW264.7 rat macrophage cell line. The data set is described as follows: MTT assay, normal cells RAW264.7. The conditions noted are these: rat, 48 h.
Description: as §1, §2, §3, §4

Data set [6] relates to AGS human gastric cancer cell line. The data set is described as follows: MTT assay, cancer cells AGS. To be noted: 48 hours.
Description: as §1, §2, §3, §4

For data set [7], the system named is A549 human lung cancer cell line. As to the kind of experiment: MTT assay, cancer cells A549. To be noted: for LD63 Cancer cell A549: MTT assay, 48 hours.
Description: as §1, §2, §3, §4

Data set [8] has as its system Caki-1 human kidney cancer cell line. As to the kind of experiment: MTT assay, cancer cells Caki-1. The conditions noted are these: 48 hours.
Description: as §1, §2, §3, §4

For data set [9], the system named is HCT116 human colon cancer cell line. As to the kind of experiment: MTT assay, cancer cells HCT116. The conditions noted are these: for inhibitory activity better than Osmundacetone: HP116 colorectal cancer cells; for LD63 Cancer cell HCT116: MTT assay, 48 hours.
Description: as §1, §2, §3, §4

The subject of data set [10] is HT1080 human fibrosarcoma cell line. The data set is described as follows: MTT assay, cancer cells HT1080. To be noted: 48 hours.
Description: as §1, §2, §3, §4

The test system of data set [11] is T24 human bladder cancer cell line. The data set is described as follows: MTT assay, cancer cells T24. The conditions noted are these: for LD63 Cancer cell T24: MTT assay, 48 hours.
Description: as §1, §2, §3, §4

Data set [12] concerns osteoblasts (mouse MC3T3-E1). As to the kind of experiment: ALP (Alkaline phosphatase) assay, osteoblast activity. The conditions noted are these: for % Activation of ALP activity: MC3T3-E1, 14 days, percentage against control. The procedure:
Effect of KP4 to KP6 on proliferation and differentiation of osteoblast were confirmed using ALP (Alkaline phosphatase) assay, a method for measuring osteoblast activity.
Alkaline phosphatase (ALP), which is present in the cell membranes of osteoblasts, is known as a marker of osteoblast activity and is a regulator of inorganic phosphate transport, cell division or differentiation during calcification. Therefore, ALP activity was measured to determine the effect of the compounds of the present invention on the activity of osteoblasts. ALP activity was indirectly calculated by measuring the amount of p-nitrophenol, which is produced from hydrolysis of p-nitrophenyl phosphate (pNPP, Sigma, St. Louis, Mo., USA) in which ALP act as a catalyst, using a microplate reader at 405 nm wavelength.
Specifically, osteoblasts (mouse MC3T3-E1) were aliquoted into a 96-well plate (3×10^3 cells/100 μL/well) with α-MEM medium containing ascorbic acid (50 μg/mL) and 10 mM β-glycerophosphate, a differentiation factors of osteoblast. Then, KP4 to KP6 of the present invention, and osmundacetone were added at a final concentration of 10 μM and 50 μM, followed by changing medium every 72 hours and incubating for 14 days. After 14 days, the culture medium was removed from each well, washed three times with PBS, lysed with 0.2% Nonidet P-40/10 mmol/L MgCl2, and then treated ultrasonic wave with sosonifier cell disrupter (Model W-380, Heat Systems-Ultrasonics Inc., Farmingdale, N.Y.) for 3 minutes. The cell lysate was centrifuged at 1500 g for 10 minutes and the supernatant was collected to measure ALP activity. To account for changes in ALP activity according to cell number differences, total protein levels were measured using bicinchoninic acid (BCA) protein assay kit with bovine serum albumin as the standard protein, and enzyme activity was expressed as a percentage against the control group without the compound treatment.

As for `CC(=O)/C=C/c1ccc(C)c(O)c1` [KP2, (E)-4-(3-hydroxy-4-methylphenyl)but-3-en-2-one], the “Cytotoxicity, B16F10 cells” value in [1] came out at 298 ± 27 µM. In addition, the “cancer cell inhibitory activity versus Osmundacetone” value in data set [2] (HepG2 hepatocellular carcinoma cells) is “significantly better cancer cell inhibitory activity”. In addition, the “LD63 Cancer cell HepG2” value in data set [2] worked out at 339 ± 79 µM. In [3], the “cytotoxicity to normal cells” value is “weak cytotoxicity” and the “LD50 Normal cells NTH3T3” value came to 688 ± 12 µM. In addition, in data set [4], the “LD63 Cancer cell PC3” value amounted to 309 ± 3.1 µM. Also, in data set [5], the “LD50 Normal cells RAW264.7” value turned out to be 395 ± 22 µM. In data set [6], the “LD63 Cancer cell AGS” value amounted to 209 ± 5.9 µM. Further, the “cancer cell inhibitory activity versus Osmundacetone” value in data set [7] (A549 lung cancer cells) was “significantly better cancer cell inhibitory activity”. Also, the “LD63 Cancer cell A549” value in data set [7] is 471 ± 24 µM. In addition, the “LD63 Cancer cell Caki-1” value in data set [8] turned out to be 387 ± 57 µM. Besides, in data set [9], the “inhibitory activity better than Osmundacetone” value turned out to be 2 times and the “LD63 Cancer cell HCT116” value turned out to be 380 ± 32 µM. Besides, the “LD63 Cancer cell HT1080” value in data set [10] turned out to be 256 ± 14 µM. Further, the “LD63 Cancer cell T24” value in [11] came out at 1120 ± 67 µM.

On to `NC(=O)/C=C/c1ccc(F)c(O)c1` [KP8, (E)-3-(4-fluoro-3-hydroxyphenyl)acrylamide], for which the “Cytotoxicity, B16F10 cells” value in data set [1] is reported as >5,000 μM. Moreover, in data set [2], the “LD63 Cancer cell HepG2” value was determined as 1280 ± 390 µM. Besides, the “LD50 Normal cells NTH3T3” value in data set [3] is >5000 µM. For the same compound, the “LD63 Cancer cell PC3” value in data set [4] was >5,000 μM. In addition, the “LD50 Normal cells RAW264.7” value in [5] is >5000 µM. Further, in data set [6], the “LD63 Cancer cell AGS” value stood at 569 ± 4.8 µM. Further, the “LD63 Cancer cell A549” value in [7] stood at 935 ± 10 µM. Moreover, in [8], the “LD63 Cancer cell Caki-1” value is 2990 ± 58 µM. Moreover, the “LD63 Cancer cell HCT116” value in data set [9] is reported as >5,000 μM. Moreover, the “LD63 Cancer cell HT1080” value in [10] came to 1090 ± 19 µM. The “LD63 Cancer cell T24” value in [11] came to 203 ± 69 µM. The “inhibitory activity” value in data set [11] (T24 bladder cancer cells) is reported as “particularly better inhibitory activity”.

On to `CC(=O)/C=C/c1ccc(F)c(O)c1` [KP3, (E)-4-(4-fluoro-3-hydroxyphenyl)but-3-en-2-one], for which, in data set [1], the “Cytotoxicity, B16F10 cells” value amounted to 278 ± 15 µM. In addition, the “LD63 Cancer cell HepG2” value in [2] was found to be 612 ± 95 µM. Further, the “LD50 Normal cells NTH3T3” value in [3] was >5000 µM. Further, the “LD63 Cancer cell PC3” value in data set [4] stood at 387 ± 48 µM. In [5], the “LD50 Normal cells RAW264.7” value was found to be 503 ± 57 µM. Besides, the “LD63 Cancer cell AGS” value in [6] was 239 ± 14 µM. Besides, the “LD63 Cancer cell A549” value in data set [7] was 1090 ± 46 µM. Besides, the “LD63 Cancer cell Caki-1” value in data set [8] was 408 ± 12 µM. In data set [9], the “inhibitory activity better than Osmundacetone” value turned out to be 2 times and the “LD63 Cancer cell HCT116” value turned out to be 389 ± 18 µM. For the same compound, the “LD63 Cancer cell HT1080” value in data set [10] stood at 379 ± 10 µM. For the same compound, the “LD63 Cancer cell T24” value in data set [11] was >5,000 μM.

Consider `CC(=O)C=Cc1ccc(O)cc1` [4-Hydroxybenzalacetone, reference compound], for which the “LD50 Normal cells NTH3T3” value in data set [3] came to 201 ± 10 µM. Besides, in data set [5], the “LD50 Normal cells RAW264.7” value came to 294 ± 45 µM.

On to `COc1cc(/C=C/C(C)=O)ccc1O` [KP4, (E)-4-(4-hydroxy-3-methoxyphenyl)-3-buten-2-one], for which, in data set [1], the “Cytotoxicity, B16F10 cells” value was determined as 423 ± 39 µM. The “LD50 Normal cells NTH3T3” value in [3] was >5000 µM. In addition, in data set [4], the “LD63 Cancer cell PC3” value was determined as 223 ± 85 µM. Also, the “LD50 Normal cells RAW264.7” value in data set [5] worked out at 399 ± 42 µM. For the same compound, in [6], the “LD63 Cancer cell AGS” value stood at 417 ± 15 µM. In addition, in data set [12] (10 μM and 50 μM), the “ALP activity / osteoblast activation versus control” value is “higher ALP activity”. Moreover, the “% Activation of ALP activity” value in data set [12] (10 μM) is given as 113 ± 2.9%. Moreover, in data set [12] (50 μM), the “ALP activity increase compared with the control group” value is reported as ≥ 400%, the “osteoblast activity compared to osmundacetone treat group” value is on record as 1.5 times and the “% Activation of ALP activity” value is given as 422 ± 6.9%. Besides, the “LD63 Cancer cell A549” value in [7] is 3010 ± 38 µM. In addition, the “LD63 Cancer cell Caki-1” value in data set [8] is 506 ± 13 µM. Also, in data set [9], the “LD63 Cancer cell HCT116” value stood at 495 ± 13 µM. In addition, the “LD63 Cancer cell HT1080” value in data set [10] is on record as >5,000 μM. Moreover, in [11], the “LD63 Cancer cell T24” value was >5000 µM.

The values above are taken from patent US11629121B2, “Benzylideneacetone derivative and use thereof” (KORPHARM CO., LTD., priority 2017, dated 2023).
